The values that follow come from publication PMC7287908, “N-Alkyl-2-[4-(trifluoromethyl)benzoyl]hydrazine-1-carboxamides and Their Analogues: Synthesis and Multitarget Biological Activity” (Molecules, 2020).

As usually defined, the IC50 is the midpoint of a concentration-inhibition curve. The low end stands for greater potency, the high end for weaker potency.

In one data set the test system is HepG2 cells. The data set is described as follows: Cytostatic activity, MTT assay. In kind it is cell-based, human. Particulars: HepG2, at a concentration of 100 µM. The procedure:
(§1) Since compounds containing trifluoromethyl group has been known for their toxic action on eukaryotic cells and approved as anticancer drugs, we investigated cytostatic properties of the derivatives 2–4 using human hepatocellular carcinoma (HepG2) and monocyte (MonoMac6) cell lines. […] The remaining compounds have no cytostatic effect up to 50 µM. Higher concentrations were not investigated due to solubility problems, i.e., precipitation of crystals. […]
(§2) The cell viability was determined by 3-(4,5-dimethylthiazol-2-yl)-2,5-diphenyltetrazolium bromide (MTT) assay. […] The obtained formazan crystals were dissolved in 100 μL of DMSO and the optical density (OD) of the samples was measured at λ = 540 and 620 nm, respectively, employing an ELISA reader (iEMS Reader, Labsystems, Helsinki, Finland). OD620 values were subtracted from OD540 values and the percent of cytostasis was calculated using the following equation:Cytostatic effect (%) = [1 − (ODtreated/ODcontrol)] × 100 where ODtreated and ODcontrol correspond to the optical densities of the treated and the control cells, respectively). […]
A general note: Formazan colour is commonly taken as a measure of viable cells.

The next data set concerns MonoMac6 cells. The data set is described as follows: Cytostatic activity, MTT assay. In kind it is cell-based, human. Particulars: MonoMac6, at a concentration of 100 µM. As to the method: as §1, §2
Data set [1] concerns the target T1, BuChE from equine serum (EqBuChE) (Equus caballus, UniProt P81908).
T1 construct: butyrylcholinesterase from equine serum (EqBuChE); purchased Sigma-Aldrich (Prague, Czech Republic); host or cells: equine serum (natural source)
In words: biochemical. Particulars: IC50 BuChE, mean ± SD, n = three independent experiments. As to the method:
Newly synthesized N-alkyl-2-[4-(trifluoromethyl)benzoyl]hydrazine-1-carboxamides 2a–2q were evaluated for their in vitro potency to inhibit AChE from electric eel (EeAChE) and BuChE from equine serum (EqBuChE) using modified Ellman’s spectrophotometric method. […] The efficacy of inhibitors is expressed as IC50, i.e., the concentration causing 50% inhibition of the enzyme activity. Based on IC50 values for both enzymes, selectivity indexes (SI) as the ratio of IC50 for BuChE/IC50 for AChE to quantify the preference for AChE were calculated (Table 1).
IC50 values were determined using the spectrophotometric Ellman’s method modified according to Zdražilová et al., which is a simple, rapid and direct method to determine the SH and -S-S- group content. This method is widely used for the screening of the efficiency of cholinesterases inhibitors. The enzymatic activity is measured indirectly by quantifying the concentration of the 5-thio-2-nitrobenzoic acid ion formed in the reaction between the thiol reagent 5,5′-dithio-bis(2-nitrobenzoic acid) and thiocholine, a product of acetylthiocholine substrate hydrolysis by cholinesterases.
The enzyme activity in final reaction mixture (2000 µL) was 0.2 U/mL, concentration of acetylthiocholine (or butyrylthiocholine) 40 µM and concentration of 5,5′-dithio-bis(2-nitrobenzoic acid) 0.1 mM for all reactions. The tested compounds were dissolved in DMSO and then diluted in demineralized water to the concentration of 1 mM. […] All measurements were carried in triplicates and the average values of reaction rate (v0-uninhibited reaction, vi-inhibited reaction) were used for construction of the dependence v0/vi vs. concentration of inhibitor. From obtained equation of regression curve, IC50 values were calculated.
Acetylcholinesterase used was obtained from electric eel (Electrophorus electricus L.; EeAChE) and butyrylcholinesterase from equine serum (EqBuChE).

T1 sequence (P81908 whole entry): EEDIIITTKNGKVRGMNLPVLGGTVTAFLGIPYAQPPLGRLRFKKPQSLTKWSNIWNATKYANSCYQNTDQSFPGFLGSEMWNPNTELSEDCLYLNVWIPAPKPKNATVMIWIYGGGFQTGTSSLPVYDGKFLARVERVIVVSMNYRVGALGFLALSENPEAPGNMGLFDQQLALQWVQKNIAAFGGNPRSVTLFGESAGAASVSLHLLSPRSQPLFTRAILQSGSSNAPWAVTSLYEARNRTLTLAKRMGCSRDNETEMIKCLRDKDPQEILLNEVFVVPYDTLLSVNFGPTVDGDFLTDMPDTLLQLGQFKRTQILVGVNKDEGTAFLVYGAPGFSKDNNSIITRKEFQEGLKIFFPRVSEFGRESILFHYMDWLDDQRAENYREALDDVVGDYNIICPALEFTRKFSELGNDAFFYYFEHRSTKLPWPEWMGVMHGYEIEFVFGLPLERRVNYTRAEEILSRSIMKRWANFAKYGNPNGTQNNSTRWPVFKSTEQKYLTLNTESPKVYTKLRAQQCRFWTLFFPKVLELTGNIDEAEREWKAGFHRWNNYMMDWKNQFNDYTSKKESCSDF

As for `NNC(=O)c1ccc(C(F)(F)F)cc1` [compound 1, 4-(Trifluoromethyl)benzohydrazide], the cytostatic action entry in the data set with HepG2 cells and in the data set with MonoMac6 cells was “avoided any cytostatic action” each time. The compound also came in with an IC50 in data set [1] of 204 ± 2.69 µM.
